Measurements: patent US9708314B2, “Heterocyclic amide compound” (NISSAN CHEMICAL INDUSTRIES, LTD., priority 2013, dated 2017)

How the values were obtained:
Format in all cases: in vivo
Monochoria vaginalis = assay: Test Example 2: herbicidal activity, application during weed generation in submerged conditions; conditions: Eighteenth Table; application herbicide amount 320 g/ha
How it was run: (§1)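 Post-emergence application under submerged conditions: water-diluted emulsion dosed onto the water surface (g/ha) when weeds reach one- to two-leaf stage. Soil flooded to 4 cm; greenhouse 25–30 °C. Herbicidal ratio graded in six classes, 0 (≤5%) to 5 (≥90%), at three weeks.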

[1] = system: Echinochloa oryzacola Vasing.; assay: as above; conditions: Eighteenth Table; application herbicide amount 320 g/ha
How it was run: as §1

Scirpus juncoides = assay: as above; conditions: Eighteenth Table; application herbicide amount 320 g/ha
How it was run: as §1

Triticum aestivum = assay: Test Example 4: effect on crop by application to foliage (diluvial soil, plastic box); conditions: for e (Triticum aestivum) effect on crop grade: Application herbicide amount 320 g/ha, foliage application; for e: effect on crop, Triticum aestivum: application to foliage, application herbicide amount 320 g/ha
How it was run: (§2)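 Emulsion-formulated compound, diluted to a predetermined g/ha dose, applied by small sprayer to leaves and stems of 14-day-old seedlings grown in sterilized diluvial soil. Effect rated on 0–5 herbicidal-ratio scale three weeks on.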

[2] = system: Beta vulgaris ssp. vulgaris; assay: as above; conditions: for f (Beta vulgaris ssp. vulgaris) effect on crop grade: Application herbicide amount 320 g/ha, foliage application; for f: effect on crop, Beta vulgaris ssp. vulgaris: application to foliage, application herbicide amount 320 g/ha
How it was run: as §2

Zea mays = assay: as above; conditions: for c (Zea mays) effect on crop grade: Application herbicide amount 320 g/ha, foliage application; for c: effect on crop, Zea mays: application to foliage, application herbicide amount 320 g/ha
How it was run: as §2

Brassica campestris L. = assay: as above; conditions: for g (Brassica campestris L.) effect on crop grade: Application herbicide amount 320 g/ha, foliage application; for g: effect on crop, Brassica campestris L.: application to foliage, application herbicide amount 320 g/ha
How it was run: as §2

[3] = system: transplanted Oryza sativa; assay: Test Example 1: effect on crop, application before weed generation in submerged conditions; conditions: Application herbicide amount 320 g/ha; Seventeenth Table
How it was run: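 Rating, on a six-step scale from almost no effect (0) to almost completely withered (5), was made three weeks after pre-emergence treatment. Treatment was surface application to flooded pots at g/ha rates, with plants kept at 25° C. to 30° C.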

[4] = system: directly sowed Oryza sativa; assay: Test Example 4: effect on crop by application to foliage (diluvial soil, plastic box); conditions: for b: effect on crop, directly sowed Oryza sativa: application to foliage, application herbicide amount 320 g/ha
How it was run: as §2

SMILES | C (Monochoria vaginalis) herbicidal ratio grade (Monochoria vaginalis) | A (Echinochloa oryzicola Vasing.) herbicidal ratio grade [1] | B (Scirpus juncoides) herbicidal ratio grade (Scirpus juncoides) | e (Triticum aestivum) effect on crop grade (Triticum aestivum) | f (Beta vulgaris ssp. vulgaris) effect on crop grade [2] | c (Zea mays) effect on crop grade (Zea mays) | g (Brassica campestris L.) effect on crop grade (Brassica campestris L.) | a: transplanted Oryza sativa (effect on crop grade) [3] | e: effect on crop, Triticum aestivum (Triticum aestivum) | f: effect on crop, Beta vulgaris ssp. vulgaris [2] | c: effect on crop, Zea mays (Zea mays) | b: effect on crop, directly sowed Oryza sativa [4] | g: effect on crop, Brassica campestris L. (Brassica campestris L.) | b (directly sowed Oryza sativa) effect on crop grade ([4]; Application herbicide amount 320 g/ha, foliage application)
CCN(C)c1nnc2c(C(=O)Nc3nnc(C)o3)ccc(C(F)(F)F)n12 [1-134] | 3 (Herbicidal ratio of 40% or more and less than 70%) | 1 (Herbicidal ratio of 5% or more and less than 20%) | 3 (Herbicidal ratio of 40% or more and less than 70%) | 1 (Herbicidal ratio of 5% or more and less than 20%) | 5 (Herbicidal ratio of 90% or more (almost completely withered)) | 0 (Herbicidal ratio of 5% or less (almost no effect)) | 4 (Herbicidal ratio of 70% or more and less than 90%) | 0 (Herbicidal ratio of 5% or less (almost no effect)) | – | – | – | – | – | –
Cc1nnc(NC(=O)c2ccc(C(F)(F)F)n3c(N(C)C4CCCCC4)nnc23)o1 [1-133] | 3 (Herbicidal ratio of 40% or more and less than 70%) | 2 (Herbicidal ratio of 20% or more and less than 40%) | 2 (Herbicidal ratio of 20% or more and less than 40%) | 0 (Herbicidal ratio of 5% or less (almost no effect)) | 3 (Herbicidal ratio of 40% or more and less than 70%) | 0 (Herbicidal ratio of 5% or less (almost no effect)) | 0 (Herbicidal ratio of 5% or less (almost no effect)) | 0 (Herbicidal ratio of 5% or less (almost no effect)) | – | – | – | – | – | –
CC(=O)CSc1nnc2c(C(=O)Nc3nnc(C)o3)ccc(C(F)(F)F)n12 [1-125] | 1 (Herbicidal ratio of 5% or more and less than 20%) | 0 (Herbicidal ratio of 5% or less (almost no effect)) | 2 (Herbicidal ratio of 20% or more and less than 40%) | 1 (Herbicidal ratio of 5% or more and less than 20%) | 5 (Herbicidal ratio of 90% or more (almost completely withered)) | 2 (Herbicidal ratio of 20% or more and less than 40%) | 3 (Herbicidal ratio of 40% or more and less than 70%) | 0 (Herbicidal ratio of 5% or less (almost no effect)) | – | – | – | – | – | –
CSCCNc1nnc2c(C(=O)Nc3nnc(C)o3)ccc(C(F)(F)F)n12 [1-130] | – | – | – | 0 (Herbicidal ratio of 5% or less (almost no effect)) | 5 (Herbicidal ratio of 90% or more (almost completely withered)) | 0 (Herbicidal ratio of 5% or less (almost no effect)) | 4 (Herbicidal ratio of 70% or more and less than 90%) | 1 (Herbicidal ratio of 5% or more and less than 20%) | – | – | – | – | – | –
CC(C)c1nnc2c(C(=O)Nc3nnc(C[S+](C)[O-])o3)ccc(C(F)(F)F)n12 (centres unmarked) [1-143] | – | – | – | 0 (Herbicidal ratio of 5% or less (almost no effect)) | 2 (Herbicidal ratio of 20% or more and less than 40%) | 0 (Herbicidal ratio of 5% or less (almost no effect)) | 3 (Herbicidal ratio of 40% or more and less than 70%) | 0 (Herbicidal ratio of 5% or less (almost no effect)) | – | – | – | – | – | –
COc1ccc(N(C)c2nnc3c(C(=O)Nc4nnc(C)o4)ccc(C(F)(F)F)n23)cc1 [1-165] | – | 2 (Herbicidal ratio of 20% or more and less than 40%) | 2 (Herbicidal ratio of 20% or more and less than 40%) | – | – | – | – | 0 (Herbicidal ratio of 5% or less (almost no effect)) | 0 (Herbicidal ratio of 5% or less (almost no effect)) | 5 (Herbicidal ratio of 90% or more (almost completely withered)) | 0 (Herbicidal ratio of 5% or less (almost no effect)) | 0 (Herbicidal ratio of 5% or less (almost no effect)) | 4 (Herbicidal ratio of 70% or more and less than 90%) | –
COc1ccc(CN(C)c2nnc3c(C(=O)Nc4nnc(C)o4)ccc(C(F)(F)F)n23)cc1 [1-167] | – | – | – | – | – | – | – | 0 (Herbicidal ratio of 5% or less (almost no effect)) | 0 (Herbicidal ratio of 5% or less (almost no effect)) | 5 (Herbicidal ratio of 90% or more (almost completely withered)) | 0 (Herbicidal ratio of 5% or less (almost no effect)) | 0 (Herbicidal ratio of 5% or less (almost no effect)) | 0 (Herbicidal ratio of 5% or less (almost no effect)) | –
Cc1nnc(NC(=O)c2ccc(C(F)(F)F)n3c(NCC(F)(F)F)nnc23)o1 [1-131] | 0 (Herbicidal ratio of 5% or less (almost no effect)) | 0 (Herbicidal ratio of 5% or less (almost no effect)) | 1 (Herbicidal ratio of 5% or more and less than 20%) | 0 (Herbicidal ratio of 5% or less (almost no effect)) | 3 (Herbicidal ratio of 40% or more and less than 70%) | 0 (Herbicidal ratio of 5% or less (almost no effect)) | 0 (Herbicidal ratio of 5% or less (almost no effect)) | 0 (Herbicidal ratio of 5% or less (almost no effect)) | – | – | – | – | – | –
Cc1nnc(NC(=O)c2ccc(C(F)(F)F)n3c(N4CCCC4)nnc23)o1 [1-136] | 2 (Herbicidal ratio of 20% or more and less than 40%) | 0 (Herbicidal ratio of 5% or less (almost no effect)) | 2 (Herbicidal ratio of 20% or more and less than 40%) | 0 (Herbicidal ratio of 5% or less (almost no effect)) | 4 (Herbicidal ratio of 70% or more and less than 90%) | 1 (Herbicidal ratio of 5% or more and less than 20%) | 0 (Herbicidal ratio of 5% or less (almost no effect)) | 1 (Herbicidal ratio of 5% or more and less than 20%) | – | – | – | – | – | –
O=C(Nc1nnco1)c1ccc(C(F)(F)F)n2c(N3CCCC3)nnc12 [1-139] | 3 (Herbicidal ratio of 40% or more and less than 70%) | 4 (Herbicidal ratio of 70% or more and less than 90%) | 3 (Herbicidal ratio of 40% or more and less than 70%) | 1 (Herbicidal ratio of 5% or more and less than 20%) | 5 (Herbicidal ratio of 90% or more (almost completely withered)) | 0 (Herbicidal ratio of 5% or less (almost no effect)) | 4 (Herbicidal ratio of 70% or more and less than 90%) | 2 (Herbicidal ratio of 20% or more and less than 40%) | – | – | – | – | – | –
Cc1nnc(NC(=O)c2ccc(C(F)(F)F)n3c(SCC4CC4)nnc23)o1 [1-115] | – | 3 (Herbicidal ratio of 40% or more and less than 70%) | 3 (Herbicidal ratio of 40% or more and less than 70%) | 2 (Herbicidal ratio of 20% or more and less than 40%) | 5 (Herbicidal ratio of 90% or more (almost completely withered)) | 0 (Herbicidal ratio of 5% or less (almost no effect)) | 1 (Herbicidal ratio of 5% or more and less than 20%) | 0 (Herbicidal ratio of 5% or less (almost no effect)) | – | – | – | – | – | 0 (Herbicidal ratio of 5% or less (almost no effect))
